How the values were obtained:
[1] = target: T1, α1a-adrenoceptor (recombinant) (Homo sapiens, UniProt P35348); test: Radioligand binding, cloned α1a-adrenoceptor ([3H]prazosin); settings: read-out: Affinity for recombinant α1a-adrenoceptor, cloned receptors (Ki)
T1 construct: expressed in transfected cells
T1 sequence (P35348 1-466): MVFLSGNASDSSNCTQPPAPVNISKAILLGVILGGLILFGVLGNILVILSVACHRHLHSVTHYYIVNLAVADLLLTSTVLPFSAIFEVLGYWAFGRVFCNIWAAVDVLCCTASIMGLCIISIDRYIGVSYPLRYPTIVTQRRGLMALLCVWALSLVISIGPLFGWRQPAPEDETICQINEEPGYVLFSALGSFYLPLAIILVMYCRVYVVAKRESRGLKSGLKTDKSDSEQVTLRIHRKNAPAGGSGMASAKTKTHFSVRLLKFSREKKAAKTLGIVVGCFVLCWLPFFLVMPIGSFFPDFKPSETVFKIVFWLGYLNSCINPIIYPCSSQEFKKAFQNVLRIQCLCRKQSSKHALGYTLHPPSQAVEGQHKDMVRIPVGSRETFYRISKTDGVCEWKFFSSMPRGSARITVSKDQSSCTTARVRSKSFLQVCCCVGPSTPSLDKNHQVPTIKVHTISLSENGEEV

[2] = target: T2, α1b-adrenoceptor (recombinant) (Homo sapiens, UniProt P35368); test: Radioligand binding, cloned α1b-adrenoceptor ([3H]prazosin); settings: read-out: Affinity for recombinant α1b-adrenoceptor, cloned receptors (Ki)
T2 construct: expressed in transfected cells
T2 sequence (P35368 1-520): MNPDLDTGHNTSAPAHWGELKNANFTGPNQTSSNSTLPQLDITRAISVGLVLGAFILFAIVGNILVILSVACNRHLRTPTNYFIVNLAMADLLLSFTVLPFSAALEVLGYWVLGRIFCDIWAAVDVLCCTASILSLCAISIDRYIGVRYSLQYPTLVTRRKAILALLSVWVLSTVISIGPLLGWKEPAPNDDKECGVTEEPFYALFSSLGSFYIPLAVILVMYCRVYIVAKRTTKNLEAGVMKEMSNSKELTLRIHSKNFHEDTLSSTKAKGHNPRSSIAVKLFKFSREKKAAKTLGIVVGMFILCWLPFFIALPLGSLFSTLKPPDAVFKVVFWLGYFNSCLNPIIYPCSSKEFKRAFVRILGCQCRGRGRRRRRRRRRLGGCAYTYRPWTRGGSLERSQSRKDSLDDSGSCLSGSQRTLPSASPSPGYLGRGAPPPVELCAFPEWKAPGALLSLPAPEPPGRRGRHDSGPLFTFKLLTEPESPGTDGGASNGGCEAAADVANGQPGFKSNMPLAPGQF

[3] = tested on: prostatic urethral pressure increase induced by noradrenaline; test: Inhibition of urethral contractions induced by noradrenaline in anaesthetised dogs after i.v. administration; type: in vivo, dog; settings: for UC ID50: active dose inhibiting by 50% the urethral contractions induced by noradrenaline: i.v. administration; for DBP/UC ratio between the active doses: i.v., DBP ED25 / UC ID50
Method: (§1) The experiments were performed according to the method of Imagawa J. et al., J. Pharmacol. Methods 22: 103-111, 1989, with substantial modifications, as follows: adult male beagle dogs, weighing 8-10 kg, were anaesthetised with pentobarbital sodium (30 mg/kg i.v. and 2 mg/kg/h i.v.), intubated and spontaneously ventilated with room air. In order to monitor systemic blood pressure (BP), a polyethylene (PE) catheter was introduced into the aortic arch through the left femoral artery. A collateral of the left femoral vein was cannulated for infusion of anaesthetic, and the right femoral vein was cannulated for administration of compounds. For intra-arterial (i.a.) injection of noradrenaline (NA), a PE catheter was introduced into the lower portion of the abdominal aorta via the right external iliac artery. Through such procedure, NA was selectively distributed to the lower urinary tract. A paramedian vertical suprapubic incision extending from the base of the pelvis to the mid-abdominal region was made and the bladder and prostate were exposed. The bladder was manually emptied with a syringe. Prostatic urethral pressure was monitored with a Mikro-tip catheter (5F) introduced into the bladder via the external urethral meatus, and withdrawn until the pressure transducer was positioned in the prostatic region of the urethra. A ligature was secured between the neck of the bladder and urethra to isolate the response of the latter and to avoid any interaction with the bladder. Another ligature was put around the Mikro-tip catheter at the external meatus, to secure the catheter itself. After a stabilising period following the surgical procedure (30 minutes), in which arterial and prostatic urethral pressure were continuously monitored as basal values, i.a. administration of NA was made at intervals of 20 minutes. The doses of NA chosen were such to produce an increase of at least 100% in urethral pressure. The test compounds were administered i.v. in a cumulative manner with intervals of 15-20 minutes between administrations. I.a. injections of NA were repeated 5 minutes after every dosing of test compound with intervals of about 10 minutes between stimulations. In order to compare the effects of the administered compound, dose/response curves (log dose transformation) were constructed by computing, at the peak effect, the percent decrease in diastolic blood pressure and the percent inhibition of the increase in urethral pressure induced by NA.

diastolic blood pressure = test: Lowering of diastolic blood pressure in anaesthetised dogs after i.v. administration; type: in vivo, dog
Method: as §1

| Compound | Ki [1] [nM] | Ki [2] [nM] | UC ID50: active dose inhibiting by 50% the urethral contractions induced by noradrenaline [3] [mg/kg] | DBP/UC ratio between the active doses [3] | DBP ED25: active dose lowering diastolic blood pressure by 25% (diastolic blood pressure) [mg/kg] |
| --- | --- | --- | --- | --- | --- |
| CCOC(=O)c1oc2c(C(=O)NCCCN3CCN(c4cc(Cl)ccc4OC)CC3)cccc2c(=O)c1C [Example 4, 2-Ethoxycarbonyl-8-{3-[4-(5-chloro-2-methoxyphenyl)-1-piperazinyl]-propylcarbamoyl}-3-methyl-4-oxo-4H-1-benzopyran] | 0.21 | 0.08 | 0.0023 | 71.0 | 0.1633 |
| COc1ccc(Cl)cc1N1CCN(CCCNC(=O)c2cccc3c(=O)c(C)c(C(N)=O)oc23)CC1 [Example 1, 2-Carbamoyl-8-{3-[4-(5-chloro-2-methoxyphenyl)-1-piperazinyl]-propylcarbamoyl}-3-methyl-4-oxo-4H-1-benzopyran] | 2.4 | 2.62 | 0.0118 | 234.7 | 2.769 |

— patent US6403594B1, “Benzopyran derivatives” (Recordati, S.A. Chemical and Pharmaceutical Company, priority 1999, dated 2002)
